One assay concerns the target S. aureus SPase (Staphylococcus aureus, UniProt P0A070). Briefly: biochemical. Conditions: IC 50 (nM) S. aureus, 20 μM substrate, 10 minutes preincubation. As to the method: Full length His-tagged S. aureus SPase protein was expressed similarly from E. coli BL21(DE3) containing the plasmid pCDF1-SaSpsB and purified similarly to the E. coli protein with the following exceptions. SPase protein was solubilized using 300 mM NaCl, 20 mM Tris pH 8.06, 5 mM Imidazole, 10% glycerol, 1% Triton X-100, prior to purification in Ni-NTA Superflow resin and resin bound protein was washed in a similar buffer containing 1% Elugent in place of Triton X-100 prior to protein eluted in wash buffer supplemented with 300 mM imidazole. […] All protein concentrations were determined by BCA assay.
(§1) Signal peptidase enzyme activity of the above proteins was measured using two fluorogenic peptide substrates (decanoyl-LSSPAYNO2A ? ADKabzPD and decanoyl-LTPTAYNO2A ? ASKKabzDD), where abz is the fluorescence donor 2-aminobenzamide, YNO2 is the fluorescence acceptor 3-nitrotyrosine, and the cleavage site is indicated with an arrow. Enzyme mix solution was prepared by diluting 2.5 nM of Escherichia coli or Staphylococcus aureus SPase protein into reaction buffers consisting of 20 mM PO4 pH 7.4, 100 mM NaCl, and 1% Elugent™ or octyl phenoxypolyethoxylethanol detergent at a concentration of 0.25% or 0.0625%. Reactions were initiated by the addition of substrate to a final concentration of 20 μM. Reaction progress was monitored by measuring the increase in fluorescence signal (excitation at 314 nm, emission at 416 nm) using a SpectraMax M2 fluorescence microplate reader. To determine IC50 values of test compounds, compound stock solutions were prepared in DMSO at a concentration of 1 mM. Three-folder serial dilutions of test compounds, starting at 10 μM, were prepared in enzyme mix solution and incubated at room temperature for 10 minutes. Following this incubation, fluorogenic substrate was added to a final concentration of 20 μM and the increase in fluorescence, corresponding to substrate cleavage, was monitored continuously at room temperature for 1 hour. Initial reaction rates were calculated based on the rate of increase in fluorescence during the reaction. Reaction rates were plotted as a function of compound concentration, and IC50 values are determined nonlinear regression analysis (SoftMaxPro 5.4, Molecular Devices™) of the sigmoidal dose-response curve.

The target in another assay is T1, E. coli SPase (Escherichia coli, UniProt P00803).
T1 construct: Full length His-tagged E. coli SPase proteins; His; made in house; host or cells: E. coli BL21(DE3)
T1 sequence (P00803 whole entry): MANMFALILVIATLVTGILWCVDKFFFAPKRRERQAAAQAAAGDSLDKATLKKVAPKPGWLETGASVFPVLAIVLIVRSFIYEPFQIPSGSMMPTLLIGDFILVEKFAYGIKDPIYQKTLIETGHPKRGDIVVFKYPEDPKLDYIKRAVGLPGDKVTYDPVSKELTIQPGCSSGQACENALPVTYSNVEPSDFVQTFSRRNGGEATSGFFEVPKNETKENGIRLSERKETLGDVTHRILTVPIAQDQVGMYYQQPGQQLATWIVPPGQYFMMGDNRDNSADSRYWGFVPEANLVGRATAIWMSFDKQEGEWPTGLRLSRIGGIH
Briefly: Biochemical SPase activity assay, fluorogenic peptide substrate, E. coli enzyme. Conditions: 20 μM substrate, 10 minutes preincubation, read-out: IC 50 (nM) E. coli. As to the method:
Full length His-tagged E. coli SPase proteins were expressed in E. coli BL21(DE3) containing the plasmid pET23-lepB. Briefly, saturated overnight cultures grown in 20 ml of Luria-Bertani medium supplemented with ampicillin were subcultures into 1.5 L of Luria-Bertani, and shaken at 37° C. until an optical density at 600 nm of 0.4-0.5 was achieved.
as §1

In assay [1] the test system is methicillin resistant Staphylococcus aureus (MRSA) strain USA300 (NRS384). The settings on record: MRSA USA300 (NRS384); 35° C., 22 hours. A digest of the protocol: (§2)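 CLSI broth microdilution in cation-adjusted Mueller Hinton Broth with 0.002% Tween-80, two-fold dilutions starting at 64 μg/ml.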
The test system of assay [2] is Escherichia coli strain MC4100 IMP-4213, which harbors an LptD mutation. Conditions: E. coli MC4100 IMP-4213; 35° C., 22 hours. A digest of the protocol: as §2

In brackets after ≈: the same amount, converted by molar mass. *1 amine or outer side, *2 acyl side, *3 side chain or, on linkers, in order; H or OH if unused. Where a SMILES comes first, the peptide text is derived from it. [ ]: non-standard residue; d: D form. The star is where a group is joined. boroAla((+)-pinanediol) = C[C@H](N*)B1O[C@@H]2C[C@@H]3C[C@@H](C3(C)C)[C@]2(C)O1; Biphenylcarbonyl(4'-Bu) = CCCCc1ccc(-c2ccc(C(=O)*)cc2)cc1; X5 = C[C@H](N*)B1OC2C[C@@H]3C[C@@H](C3(C)C)[C@]2(C)O1; Benzoyl(4-(4-Cl-Ph)) = O=C(c1ccc(-c2ccc(Cl)cc2)cc1)*; X11 = CCCCc1ccc(-c2nc(C(=O)*)cs2)cc1; X10 = O=C(c1ccc(-c2ccc(Cl)cc2)nc1)*; X1 = C[C@H](N[*:1])C(=O)C(=O)[*:2]; NHPhenethyl = c1ccc(CCN*)cc1; Decanoyl = CCCCCCCCCC(=O)*; X6 = NCCCCCCCCCCCCCCC(=O)*; boroAla = C[C@H](N*)B(O)O; Octanoyl = CCCCCCCC(=O)*; X8 = NCCCCCCCCCCCCC(=O)*; Dab = NCC[C@H](N)C(=O)O; Dap = NC[C@H](N)C(=O)O; NHtBu = CC(C)(C)N*; NHcPr = C1CC1N*; Sar = CNCC(=O)O A value given as a limit tells only on which side of the number the result lay.

Chain of S. aureus SPase (P0A070 whole entry): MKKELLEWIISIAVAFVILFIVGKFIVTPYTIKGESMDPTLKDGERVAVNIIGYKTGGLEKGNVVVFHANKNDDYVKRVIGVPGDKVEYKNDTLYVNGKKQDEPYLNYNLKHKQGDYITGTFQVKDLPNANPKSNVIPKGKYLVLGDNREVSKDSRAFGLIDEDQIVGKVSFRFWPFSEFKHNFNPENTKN

As to `C[C@H](NC(=O)[C@@H](NC(=O)[C@H](CN)NC(=O)c1ccc(-c2ccc(Cl)cc2)cc1)[C@@H](C)O)C(=O)N[C@@H](CCCCN)C(=O)N[C@@H](C)C(=O)C(=O)NC(C)(C)C` [Compound 108] ({Benzoyl(4-(4-Cl-Ph))}-[Dap]TAK[X1]-NHtBu), the IC50 against S. aureus SPase came to 3700 nM; on E. coli SPase it was 930 nM. In addition, in assay [1], the “MIC (μg/mL) S. aureus” value was above 64 µg/mL. In assay [2], the “MIC (μg/mL) E. coli” value is above 64 µg/mL.
For the compound `C[C@H](NC(=O)[C@@H](NC(=O)[C@H](CN)NC(=O)c1ccc(-c2ccc(Cl)cc2)cc1)[C@@H](C)O)C(=O)N[C@@H](CCCCN)C(=O)N[C@@H](C)C(=O)C(=O)NC1CC1` [Compound 109] ({Benzoyl(4-(4-Cl-Ph))}-[Dap]TAK[X1]-NHcPr), the IC50 against S. aureus SPase was 2000 nM; at E. coli SPase it was 820 nM. Besides, the “MIC (μg/mL) S. aureus” value in assay [1] was determined as 32 µg/mL (≈ 42.3 µM). Further, the “MIC (μg/mL) E. coli” value in assay [2] was 32 µg/mL (≈ 42.3 µM).
For the compound `C[C@H](NC(=O)[C@@H](NC(=O)[C@H](CN)NC(=O)c1ccc(-c2ccc(Cl)cc2)cc1)[C@@H](C)O)C(=O)N[C@@H](CCCCN)C(=O)N[C@@H](C)C(=O)C(=O)NCCc1ccccc1` [Compound 110] ({Benzoyl(4-(4-Cl-Ph))}-[Dap]TAK[X1]-NHPhenethyl), the IC50 against S. aureus SPase is 3800 nM; on E. coli SPase, 6000 nM. Further, the “MIC (μg/mL) S. aureus” value in assay [1] was found to be 32 µg/mL (≈ 39 µM). The “MIC (μg/mL) E. coli” value in assay [2] turned out to be 64 µg/mL (≈ 77.9 µM).
Take `COC(=O)CNC(=O)C(=O)[C@H](C)NC(=O)[C@H](CCCCN)NC(=O)[C@H](C)NC(=O)[C@@H](NC(=O)[C@H](CN)NC(=O)c1ccc(-c2ccc(Cl)cc2)cc1)[C@@H](C)O` [Compound 111] ({Benzoyl(4-(4-Cl-Ph))}-[Dap]TAK[X1]G-OMe): the IC50 came out at 690 nM at S. aureus SPase and 360 nM at E. coli SPase. In assay [1], the “MIC (μg/mL) S. aureus” value was determined as 16 µg/mL (≈ 20.3 µM). For the same compound, the “MIC (μg/mL) E. coli” value in assay [2] is 16 µg/mL (≈ 20.3 µM).
In the case of `CC(=O)N[C@@H](CCN)C(=O)N[C@H](C(=O)N[C@@H](C)C(=O)N[C@@H](CCCCN)C(=O)N[C@@H](C)B1O[C@@H]2C[C@@H]3C[C@@H](C3(C)C)[C@]2(C)O1)[C@@H](C)O` [Compound 113] (Ac-[Dab]TAK-{boroAla((+)-pinanediol)}), the IC50 at S. aureus SPase was determined as 1200 nM; on E. coli SPase it was 5700 nM. In assay [1], the “MIC (μg/mL) S. aureus” value was above 64 µg/mL. For the same compound, the “MIC (μg/mL) E. coli” value in assay [2] is above 64 µg/mL.
`CCCCCCCC(=O)N[C@@H](CCN)C(=O)N[C@H](C(=O)N[C@@H](C)C(=O)N[C@@H](CCCCN)C(=O)N[C@@H](C)B1O[C@@H]2C[C@@H]3C[C@@H](C3(C)C)[C@]2(C)O1)[C@@H](C)O` [Compound 114] (Octanoyl-[Dab]TAK-{boroAla((+)-pinanediol)}): the IC50 came out at 250 nM against S. aureus SPase and 64 nM on E. coli SPase. For the same compound, the “MIC (μg/mL) S. aureus” value in assay [1] amounted to 13 µg/mL (≈ 17.3 µM). Moreover, in assay [2], the “MIC (μg/mL) E. coli” value came out at 32 µg/mL (≈ 42.7 µM).
The matching figures for `C[C@H](NC(=O)[C@H](CCCCN)NC(=O)[C@H](C)NC(=O)[C@@H](NC(=O)[C@H](CCN)NC(=O)CCCCCCCCCCCCN)[C@@H](C)O)B1O[C@@H]2C[C@@H]3C[C@@H](C3(C)C)[C@]2(C)O1` [Compound 115] (X8-[Dab]TAK-{boroAla((+)-pinanediol)}): 590 nM, 330 nM, 11 µg/mL (≈ 13.2 µM) and above 64 µg/mL.
The matching figures for `C[C@H](NC(=O)[C@H](CCCCN)NC(=O)[C@H](C)NC(=O)[C@@H](NC(=O)[C@H](CCN)NC(=O)CCCCCCCCCCCCCCN)[C@@H](C)O)B1O[C@@H]2C[C@@H]3C[C@@H](C3(C)C)[C@]2(C)O1` [Compound 116] (X6-[Dab]TAK-{boroAla((+)-pinanediol)}): 480 nM, 200 nM, 1.4 µg/mL (≈ 1.62 µM) and 32 µg/mL (≈ 37.1 µM).
`CCCCCCCCCC(=O)N[C@@H](CCN)C(=O)N[C@H](C(=O)N[C@@H](C)C(=O)N[C@@H](CCCCN)C(=O)N[C@@H](C)B1O[C@@H]2C[C@@H]3C[C@@H](C3(C)C)[C@]2(C)O1)[C@@H](C)O` [Compound 117] (Decanoyl-[Dab]TAK-{boroAla((+)-pinanediol)}): the values for the IC50 at S. aureus SPase and on E. coli SPase were 150 nM and 20 nM, respectively. For the same compound, the “MIC (μg/mL) S. aureus” value in assay [1] stood at 2 µg/mL (≈ 2.57 µM). The “MIC (μg/mL) E. coli” value in assay [2] was 8 µg/mL (≈ 10.3 µM).
In the case of `C[C@H](NC(=O)[C@H](CCCCN)NC(=O)[C@H](C)NC(=O)[C@@H](NC(=O)[C@H](CCN)NC(=O)c1ccc(-c2ccc(Cl)cc2)nc1)[C@@H](C)O)B1O[C@@H]2C[C@@H]3C[C@@H](C3(C)C)[C@]2(C)O1` [Compound 118] (X10-[Dab]TAK-{boroAla((+)-pinanediol)}), the IC50 on S. aureus SPase came to 70 nM; at E. coli SPase, 15 nM. Moreover, the “MIC (μg/mL) S. aureus” value in assay [1] came out at 2 µg/mL (≈ 2.38 µM). Besides, in assay [2], the “MIC (μg/mL) E. coli” value came to 8 µg/mL (≈ 9.53 µM).
The matching figures for `C[C@H](NC(=O)[C@H](CCCCN)NC(=O)[C@H](C)NC(=O)[C@@H](NC(=O)[C@H](CCN)NC(=O)c1ccc(-c2ccc(Cl)cc2)cc1)[C@@H](C)O)B(O)O` [Compound 119] ({Benzoyl(4-(4-Cl-Ph))}-[Dab]TAK-boroAla): 120 nM, 10 nM, 1 µg/mL (≈ 1.42 µM) and 2 µg/mL (≈ 2.84 µM).
The matching figures for `CCCCCCCCCC(=O)N[C@@H](CCN)C(=O)N[C@H](C(=O)N[C@@H](C)C(=O)N[C@@H](CCCCN)C(=O)N[C@@H](C)B(O)O)[C@@H](C)O` [Compound 120] (Decanoyl-[Dab]TAK-boroAla): 120 nM, 21 nM, 2.8 µg/mL (≈ 4.35 µM) and 11 µg/mL (≈ 17.1 µM).
On the same counts, the results for `CCCCc1ccc(-c2nc(C(=O)N[C@@H](CCN)C(=O)N[C@H](C(=O)N[C@@H](C)C(=O)N[C@@H](CCCCN)C(=O)N[C@@H](C)B3O[C@@H]4C[C@@H]5C[C@@H](C5(C)C)[C@]4(C)O3)[C@@H](C)O)cs2)cc1` [Compound 121] (X11-[Dab]TAK-{boroAla((+)-pinanediol)}) are 280 nM, 54 nM, 0.4 µg/mL (≈ 0.461 µM) and 1.3 µg/mL (≈ 1.5 µM).
For `CCCCc1ccc(-c2ccc(C(=O)N[C@@H](CCN)C(=O)N[C@@H](CCC(N)=O)C(=O)N[C@@H](C)C(=O)N[C@@H](CCCCN)C(=O)N[C@@H](C)B3OC4C[C@@H]5C[C@@H](C5(C)C)[C@]4(C)O3)cc2)cc1` (stereo partly shown) [Compound 122] ({Biphenylcarbonyl(4'-Bu)}-[Dab]QAK-X5), the IC50 against S. aureus SPase is 240 nM; on E. coli SPase, 20 nM. Besides, the “MIC (μg/mL) S. aureus” value in assay [1] came out at 0.4 µg/mL (≈ 0.451 µM). Also, in assay [2], the “MIC (μg/mL) E. coli” value came out at 0.2 µg/mL (≈ 0.225 µM).
On the same counts, the results for `CCCCCCCCCCCCCC(=O)N[C@@H](CCCCN)C(=O)N[C@@H](C)C(=O)N[C@@H](CCCCN)C(=O)N[C@@H](C)B1O[C@@H]2C[C@@H]3C[C@@H](C3(C)C)[C@]2(C)O1` [Compound 123] are 7800 nM, 11000 nM, 2 µg/mL (≈ 2.63 µM) and 4 µg/mL (≈ 5.26 µM).
Consider `CCCCc1ccc(-c2ccc(C(=O)N[C@@H](CCN)C(=O)N(C)CC(=O)N[C@@H](C)C(=O)N[C@@H](CCCCN)C(=O)N[C@@H](C)B3O[C@@H]4C[C@@H]5C[C@@H](C5(C)C)[C@]4(C)O3)cc2)cc1` [Compound 124] ({Biphenylcarbonyl(4'-Bu)}-[Dab][Sar]AK-{boroAla((+)-pinanediol)}), for which the IC50 was 2000 nM against S. aureus SPase and 110 nM at E. coli SPase. In addition, the “MIC (μg/mL) S. aureus” value in assay [1] came to 0.8 µg/mL (≈ 0.964 µM). In addition, the “MIC (μg/mL) E. coli” value in assay [2] came to 0.6 µg/mL (≈ 0.723 µM).

The values are drawn from patent publication US20160194358A1, “LINEAR PEPTIDE ANTIBIOTCS” (priority 2013, published 2016).
